Earlier results as cited in US8362077B2, “Chemical compositions for skin care emulsions and heavy duty hand cleansers” (Pibed Limited, priority 2008, dated 2013).
Read-outs that look alike come from different tables or passages of the source.

Assays:
[1] = system: Lactobacillus fermentum; conditions: flow cytometry
[2] = system: Staphylococcus aureus; conditions: low concentrations (0.5 to 2 mM)
[3] = system: Microsporum gypseum; conditions: M. gypseum
[4] = system: Microsporum gypseum; conditions: 10% in Vaseline petroleum jelly, topical, daily for 3 weeks
[5] = system: Escherichia coli

| SMILES | Intracellular accumulation of ethidium bromide by live cells [1] | Susceptibility to ciprofloxacin, clindamycin, erythromycin, gentamicin, tetracycline and vancomycin [2] | MIC ([3]; positive control) | MIC [3] | Histopathologic examination of skin tissues [4] | Skin lesion scoring [4] | Sensitization to polymyxin B [5] | Hair culture test [4] |
| --- | --- | --- | --- | --- | --- | --- | --- | --- |
| CC(C)=CCC/C(C)=C/CC1CCCC1=O (centres unmarked) [apritone] | promoted the intracellular accumulation | enhanced the susceptibility |  |  |  |  |  |  |
| CC(C)=CCC[C@](C)(O)C1CC=C(C)CC1 (some centres unmarked) [bisabolol] | promoted the intracellular accumulation | enhanced the susceptibility |  |  |  |  |  |  |
| Clc1ccc(COC(Cn2ccnc2)c2ccc(Cl)cc2Cl)cc1 (centres unmarked) [econazole] |  |  | 4 to 16 µg/mL |  |  |  |  |  |
| C=CCc1ccc(O)c(OC)c1 [eugenol] |  |  |  | 0.01-0.03% | lower degree of hyperkeratosis and inflammatory cell infiltration than the positive control | clinically effective at improving the lesion during the first week of application |  |  |
| CC(C)=CCCC(C)=CCCC(C)=CCO [farnesol] | promoted the intracellular accumulation |  |  |  |  |  | sensitized Escherichia coli to polymyxin B |  |
| C=CC(C)(O)CCC=C(C)CCC=C(C)C (centres unmarked) [nerolidol, 3,7,11-trimethyl-1,6,10-dodecatrien-3-ol] | promoted the intracellular accumulation | enhanced the susceptibility |  | 0.5-2% | lower degree of hyperkeratosis and inflammatory cell infiltration than the positive control | clinically effective at improving the lesion during the first week of application | sensitized Escherichia coli to polymyxin B | improved the skin lesions |
